In PubChem BioAssay (NCI) one finds TGI and GI50 data, which are given here for 15 molecules.

Among the test systems are UO-31 renal; MOLT-4 leukemia; SK-MEL-28 melanoma; OVCAR-8 ovarian; OVCAR-4 ovarian; SF-295 CNS; IGROV1 ovarian; HOP-92 NSCLC; SK-MEL-2 melanoma; RPMI-8226 leukemia.
What all share (test): inhibition of tumour cell growth, NCI panel, 48 h

SMILES strings stand for the structures. Several values for one entry are separate records, joined by “and”; a condition that tells them apart may be missing. Identical values can stand only once.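 Compound exposure: 48 hours, 5 concentrations, 96-well plates. GI50: concentration for 50% inhibition of growth. The concentration for full growth arrest is given as TGI.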

Regarding `CC(C)(C)C1CCC2c3c([nH]c4ncccc34)C3C(=O)N(c4ccccc4)C(=O)C3C2C1` (stereo not given), the TGI in the assay on UO-31 renal, with MOLT-4 leukemia, in the assay on SK-MEL-28 melanoma, in the assay on OVCAR-8 ovarian, with OVCAR-4 ovarian and in the assay on SF-295 CNS was over 100 µM in each case. Further, the TGI in the assay with IGROV1 ovarian, in the assay on HOP-92 NSCLC, with SK-MEL-2 melanoma and in the assay with RPMI-8226 leukemia was over 100 µM in each case.

Turning to `Cc1ccc(S(=O)(=O)NC(=O)NCCc2ccccc2)cc1`, the TGI in the assay with UO-31 renal, in the assay with MOLT-4 leukemia, with SK-MEL-28 melanoma, with OVCAR-8 ovarian, in the assay on OVCAR-4 ovarian and in the assay with SF-295 CNS was over 100 µM in each case. Further, the TGI in the assay with IGROV1 ovarian, in the assay on HOP-92 NSCLC, with SK-MEL-2 melanoma and with RPMI-8226 leukemia was over 100 µM each time.

Consider `Cc1cccc(C)c1NC(=O)CCc1nnc2s/c(=C\c3ccc(N(C)C)cc3)c(=O)n12`, for which the TGI with UO-31 renal, with MOLT-4 leukemia, in the assay on SK-MEL-28 melanoma, in the assay on OVCAR-8 ovarian, with OVCAR-4 ovarian and in the assay on SF-295 CNS was over 100 µM each time. The TGI in the assay on IGROV1 ovarian, with HOP-92 NSCLC, with SK-MEL-2 melanoma and in the assay on RPMI-8226 leukemia was over 100 µM each time.

As for `COc1cccc(/C=C/c2nc3c(cnn3-c3ccccc3)c(=O)[nH]2)c1`, the GI50 was over 56.8 µM in the assay on UO-31 renal; over 100 µM in the assay on MOLT-4 leukemia; over 100 µM in the assay on SK-MEL-28 melanoma; over 54.7 µM with OVCAR-8 ovarian; over 34.9 µM in the assay on OVCAR-4 ovarian; 17.8 µM in the assay on SF-295 CNS. Moreover, the GI50 with IGROV1 ovarian was 13 µM; with HOP-92 NSCLC, over 100 µM; in the assay on SK-MEL-2 melanoma, over 100 µM; with RPMI-8226 leukemia it was over 100 µM. In addition, the TGI in the assay on UO-31 renal, in the assay with MOLT-4 leukemia, in the assay with SK-MEL-28 melanoma, in the assay on OVCAR-8 ovarian, with OVCAR-4 ovarian and in the assay with SF-295 CNS was over 100 µM each time. Also, the TGI in the assay with IGROV1 ovarian, in the assay with HOP-92 NSCLC, in the assay with SK-MEL-2 melanoma and in the assay with RPMI-8226 leukemia was over 100 µM throughout.

Consider `CCOC(=O)C1C=C2O[C@@H]3OC4(CCCCC4)O[C@@H]3C2C2C(=O)CCC(=O)[C@@]12C(=O)OC` (stereo not given in full), for which the TGI with UO-31 renal, with MOLT-4 leukemia, in the assay with SK-MEL-28 melanoma, in the assay with OVCAR-8 ovarian, in the assay with OVCAR-4 ovarian and in the assay on SF-295 CNS was over 100 µM each time. The TGI with IGROV1 ovarian, in the assay with HOP-92 NSCLC, in the assay with SK-MEL-2 melanoma and in the assay on RPMI-8226 leukemia was over 100 µM throughout.

For `O=[N+]([O-])c1cccc(-c2nc(-c3ccc(Cl)cc3Cl)cn2-c2ccccc2)c1`, the GI50 with UO-31 renal is 1.19 µM; with MOLT-4 leukemia, 3.21 µM; in the assay on SK-MEL-28 melanoma, 6.76 µM; in the assay with OVCAR-8 ovarian it was 0.947 µM; in the assay on OVCAR-4 ovarian it was 0.58 µM; in the assay on SF-295 CNS it was 0.452 µM. The GI50 is 1.2 µM in the assay on IGROV1 ovarian, 0.105 µM with HOP-92 NSCLC, 1.9 µM in the assay on SK-MEL-2 melanoma and 0.00546 µM in the assay with RPMI-8226 leukemia. For the same molecule, the TGI in the assay on UO-31 renal is 7.29 µM; in the assay with MOLT-4 leukemia, over 33.3 µM; with SK-MEL-28 melanoma, 24.2 µM; in the assay with OVCAR-8 ovarian, 2.64 µM; with OVCAR-4 ovarian, 1.12 µM; in the assay with SF-295 CNS, 0.976 µM. Further, the TGI in the assay on IGROV1 ovarian was 3.86 µM; with HOP-92 NSCLC, 22.7 µM; with SK-MEL-2 melanoma it was over 11.8 µM; with RPMI-8226 leukemia, 1.79 µM.

Consider `Nc1ccccc1C#C/C=C\C#CC#C/C=C\C#Cc1ccccc1N`, for which the GI50 with UO-31 renal is 1.94 µM; in the assay on MOLT-4 leukemia it was 1.01 µM; in the assay with SK-MEL-28 melanoma, 14.6 µM; with OVCAR-8 ovarian, 4.8 µM; in the assay on OVCAR-4 ovarian, 14.6 µM; in the assay on SF-295 CNS, 5.23 µM. Also, the GI50 in the assay on IGROV1 ovarian is 2.21 µM; with HOP-92 NSCLC it was 1.77 µM; with SK-MEL-2 melanoma, 14.2 µM; with RPMI-8226 leukemia it was 0.515 µM. Also, the TGI with UO-31 renal was 16.8 µM; in the assay on MOLT-4 leukemia, 18.4 µM; in the assay with SK-MEL-28 melanoma, 36.7 µM; in the assay with OVCAR-8 ovarian, 29.5 µM; in the assay on OVCAR-4 ovarian, 92.8 µM; in the assay on SF-295 CNS, 30.2 µM. The TGI in the assay with IGROV1 ovarian amounted to 17.9 µM; with HOP-92 NSCLC it was 8.35 µM; with SK-MEL-2 melanoma it was 65.3 µM; in the assay with RPMI-8226 leukemia, 5.82 µM.

For the molecule `CCOC(=O)Nc1nc2ccccc2[nH]1`, the GI50 is 5.8 µM and 5.34 µM in the assay with UO-31 renal; 4.57 µM and 5 µM in the assay on MOLT-4 leukemia; 8.43 µM with SK-MEL-28 melanoma; 7.6 µM and 7.04 µM in the assay with OVCAR-8 ovarian; 28.8 µM and 60.6 µM in the assay on OVCAR-4 ovarian; 4.32 µM and 5.57 µM in the assay with SF-295 CNS. The GI50 with IGROV1 ovarian was > 26.6 µM and 4.1 µM; in the assay with HOP-92 NSCLC, over 100 µM; with SK-MEL-2 melanoma, 3.44 µM and 4.49 µM; with RPMI-8226 leukemia, 4.13 µM and 2.26 µM. The TGI in the assay with UO-31 renal, in the assay with MOLT-4 leukemia, in the assay on SK-MEL-28 melanoma, in the assay on OVCAR-8 ovarian, in the assay with OVCAR-4 ovarian and in the assay on SF-295 CNS was over 100 µM throughout. For the same molecule, the TGI in the assay with IGROV1 ovarian, in the assay with HOP-92 NSCLC, in the assay on SK-MEL-2 melanoma and in the assay on RPMI-8226 leukemia was over 100 µM throughout.

In the case of `C=CC(COC(=O)C(C)(C)OC(C)=O)c1ccc(OC(=O)C(C)C)c(OC)c1` (stereo not given), the TGI is 21.1 µM in the assay with UO-31 renal; 20.6 µM in the assay with MOLT-4 leukemia; 35.5 µM in the assay on SK-MEL-28 melanoma; over 89.3 µM in the assay on OVCAR-8 ovarian; 22.4 µM with OVCAR-4 ovarian; 19.9 µM with SF-295 CNS. Also, the TGI in the assay with IGROV1 ovarian is 34.3 µM; in the assay with HOP-92 NSCLC it was 11.7 µM; in the assay on SK-MEL-2 melanoma, 25.5 µM; with RPMI-8226 leukemia, over 100 µM.

Regarding `CC(C)c1ccc(C2NC(=S)NC3=C2c2ccccc2C3=O)cc1` (stereo not given), the TGI in the assay on UO-31 renal was over 58.2 µM; with MOLT-4 leukemia it was over 65 µM; in the assay with SK-MEL-28 melanoma, 57.9 µM; in the assay on OVCAR-8 ovarian, over 62.1 µM; in the assay with OVCAR-4 ovarian it was 53.8 µM; with SF-295 CNS, over 52.4 µM. The TGI was over 54.6 µM with IGROV1 ovarian, 48.3 µM in the assay with HOP-92 NSCLC, 41.7 µM in the assay on SK-MEL-2 melanoma and over 62.4 µM in the assay with RPMI-8226 leukemia.

`Cc1ccc(Nc2cc(Cl)c([N+](=O)[O-])cc2[N+](=O)[O-])cc1`: the GI50 was 4.71 µM in the assay on UO-31 renal; 3.87 µM with MOLT-4 leukemia; 2.77 µM in the assay on SK-MEL-28 melanoma; 3.37 µM in the assay with OVCAR-8 ovarian; 4.52 µM in the assay on OVCAR-4 ovarian; 14.4 µM in the assay on SF-295 CNS. For the same molecule, the GI50 in the assay on IGROV1 ovarian was 3.89 µM; in the assay with HOP-92 NSCLC it was 2.69 µM; in the assay with SK-MEL-2 melanoma, 3.31 µM; in the assay with RPMI-8226 leukemia, 2.92 µM. Besides, the TGI in the assay with UO-31 renal was 17.5 µM; with MOLT-4 leukemia, over 52.4 µM; in the assay with SK-MEL-28 melanoma, 7.27 µM; in the assay with OVCAR-8 ovarian it was 13.9 µM; in the assay with OVCAR-4 ovarian it was 16.2 µM; in the assay with SF-295 CNS, 34 µM. In addition, the TGI in the assay with IGROV1 ovarian is 10.4 µM; in the assay with HOP-92 NSCLC it was 9.48 µM; in the assay with SK-MEL-2 melanoma, 8.94 µM; with RPMI-8226 leukemia, 9.45 µM.

For the molecule `CC(C)(C)OP(=O)(OC(C)(C)C)C(O)c1ccc(/C=C(\C#N)C(N)=O)cc1` (stereo not given), the TGI in the assay on UO-31 renal, in the assay on MOLT-4 leukemia, in the assay on SK-MEL-28 melanoma, with OVCAR-8 ovarian, with OVCAR-4 ovarian and with SF-295 CNS was over 100 µM each time. Moreover, the TGI in the assay on IGROV1 ovarian, in the assay on HOP-92 NSCLC, in the assay on SK-MEL-2 melanoma and with RPMI-8226 leukemia was over 100 µM throughout.

Take `Cn1c(=O)nc2n(-c3ccc(Cl)cc3)c(-c3ccccc3)c(-c3ccccc3)nc-2c1=O`: the TGI is 60.7 µM in the assay with UO-31 renal; 53.4 µM in the assay with MOLT-4 leukemia; 86.2 µM with SK-MEL-28 melanoma; over 100 µM in the assay on OVCAR-8 ovarian; over 100 µM in the assay on OVCAR-4 ovarian; over 100 µM with SF-295 CNS. Also, the TGI with IGROV1 ovarian was over 100 µM; in the assay with HOP-92 NSCLC, 84.5 µM; in the assay with SK-MEL-2 melanoma, 60 µM; with RPMI-8226 leukemia, 71.1 µM.

In the case of `CS(=O)(=O)Nc1cc(-c2ccc3ncnc(Nc4ccc(F)c(Cl)c4)c3c2)cnc1Cl`, the GI50 with UO-31 renal is 0.204 µM; with MOLT-4 leukemia it was 0.311 µM and 0.284 µM; in the assay with SK-MEL-28 melanoma, 0.345 µM; in the assay on OVCAR-8 ovarian, 1.68 µM and 1.72 µM; in the assay on OVCAR-4 ovarian, 1.22 µM and 1.47 µM; with SF-295 CNS, 0.612 µM and 0.606 µM. The GI50 with IGROV1 ovarian was 0.114 µM; in the assay with HOP-92 NSCLC, 0.162 µM and 0.0782 µM; with SK-MEL-2 melanoma, 0.289 µM and 0.441 µM; in the assay with RPMI-8226 leukemia, 0.444 µM and 0.598 µM. For the same molecule, the TGI in the assay with UO-31 renal is 1.69 µM; in the assay with MOLT-4 leukemia it was 1.81 µM and 2.02 µM; in the assay with SK-MEL-28 melanoma it was 9.61 µM; in the assay with OVCAR-8 ovarian, 12.9 µM and > 40.4 µM; in the assay on OVCAR-4 ovarian it was 10.8 µM and 10.4 µM; in the assay with SF-295 CNS, 4.11 µM and 3.85 µM. Also, the TGI with IGROV1 ovarian was 0.495 µM; with HOP-92 NSCLC, 0.893 µM and 0.797 µM; in the assay on SK-MEL-2 melanoma, 1.53 µM and 2.32 µM; in the assay on RPMI-8226 leukemia it was 2.67 µM and 3.4 µM.

`O=c1c2ccccc2[nH]c2c(O)ccc(O)c12`: the TGI with UO-31 renal is over 79.9 µM; in the assay with MOLT-4 leukemia, 22.8 µM; with SK-MEL-28 melanoma, 35.2 µM; with OVCAR-8 ovarian it was 35.2 µM; in the assay with OVCAR-4 ovarian, 18.5 µM; with SF-295 CNS, 38.5 µM. Further, the TGI was 35.3 µM in the assay with IGROV1 ovarian, 34.5 µM in the assay on HOP-92 NSCLC, over 100 µM with SK-MEL-2 melanoma and 70.1 µM with RPMI-8226 leukemia.
